The source of these data is patent US8071576B2, “Method of preventing or treating benign gynaecological disorders” (Pantarhei Bioscience B.V., priority 2001, dated 2011).

Series [1] is described as follows: Clinical study: ethinyl estradiol/levonorgestrel with or without DHEA (Example 2). Particulars: 50 mg DHEA daily oral added to ethinyl estradiol/levonorgestrel for 104 days, versus women not receiving DHEA. It counts as in vivo. The method, then:
A clinical study is conducted in 200 healthy young women. […] Vaginal spotting and bleeding is scored daily by the participants in a diary and the effects on general well being are scored at baseline and at each study visit (every 5 weeks during study drug administration) on a psychometric rating scale. The psychometric rating scale used is especially suited for identifying differences in a population of healthy young women. The scale is a 24-item (placid, sleepy, jittery, intense, lacking confidence, energetic, sensitive, tired, well-balanced, at-rest, drowsy, fearful, lively, sickly, in a good mood, irritable, lethargic, quiet, full-of-pep, optimistic, moody, active, tense, sad), 4-point (yes, definitely; yes, a bit; no, in fact not; no, definitely not) scale to be scored by the person themself. In addition, endocrine measurements are performed in a subgroup of the participants (17β-estradiol, progesterone, total testosterone, LH, FSH and SHBG).

Series [2] is described as follows: Clinical study: 17β-estradiol/norethisterone acetate with or without DHEA (Example 3). It counts as in vivo. To be noted: 50 mg DHEA daily oral added to 3 mg 17β-estradiol and 1.5 mg norethisterone acetate for 104 days, versus women not receiving DHEA. The method, then: A clinical study is conducted in 100 healthy young women. […] Vaginal spotting and bleeding is scored daily by the participants in a diary. The effects on general well being are scored at baseline and at each study visit (every 5 weeks during study drug administration) using the psychometric rating scale described in example 2.
Ovulation inhibition is investigated by analysing pregnanediol samples twice a week during 4 weeks between week 7 and 14. In addition, endocrine measurements are performed in a subgroup of the participants (17β-estradiol, progesterone, total testosterone, LH, FSH and SHBG).

Series [3] concerns endometrium. Particulars: DHEA applied on the dorsal skin of ovariectomized rats, all time intervals; cited from earlier work.
For series [4], the system named is endometrium. Briefly: McPhail test: endometrial differentiation in estradiol-pretreated rabbits. It counts as in vivo. Particulars: rabbits pretreated with 5 μg 17β-estradiol s.c. for 6 days; levonorgestrel 8 μg/day oral and/or testosterone 20 mg/day s.c. for 5 days; scores 0-4. The method, then: The effects on endometrium of the progestogen levonorgestrel and the androgen testosterone were determined in rabbits according to the method of McPhail (Mc Phail M. K. “The assay of progestin” J Physiol (1934), 83, 145-156). Four groups of each 5 rabbits were pretreated with daily subcutaneous dosages of 5 μg 17β-estradiol for 6 days.
After pretreatment, 3 groups either received levonorgestrel at an oral dose of 8 μg per day for 5 days, testosterone in a subcutaneous dose of 20 mg per day for 5 days, or levonorgestrel and testosterone together in the aforementioned routes and doses for 5 days. The fourth group was used as the negative control.
Autopsy was performed after the treatment period and the uterus was weighed and histological sections were prepared from each uterine horn and these were microscopically evaluated according to the McPhail Index (scores 0-4; 0=no differentiation; 4=maximal differentiation).

Series [5] deals with T1, androgen receptors (Homo sapiens, UniProt P10275).
T1 sequence (P10275 1-920): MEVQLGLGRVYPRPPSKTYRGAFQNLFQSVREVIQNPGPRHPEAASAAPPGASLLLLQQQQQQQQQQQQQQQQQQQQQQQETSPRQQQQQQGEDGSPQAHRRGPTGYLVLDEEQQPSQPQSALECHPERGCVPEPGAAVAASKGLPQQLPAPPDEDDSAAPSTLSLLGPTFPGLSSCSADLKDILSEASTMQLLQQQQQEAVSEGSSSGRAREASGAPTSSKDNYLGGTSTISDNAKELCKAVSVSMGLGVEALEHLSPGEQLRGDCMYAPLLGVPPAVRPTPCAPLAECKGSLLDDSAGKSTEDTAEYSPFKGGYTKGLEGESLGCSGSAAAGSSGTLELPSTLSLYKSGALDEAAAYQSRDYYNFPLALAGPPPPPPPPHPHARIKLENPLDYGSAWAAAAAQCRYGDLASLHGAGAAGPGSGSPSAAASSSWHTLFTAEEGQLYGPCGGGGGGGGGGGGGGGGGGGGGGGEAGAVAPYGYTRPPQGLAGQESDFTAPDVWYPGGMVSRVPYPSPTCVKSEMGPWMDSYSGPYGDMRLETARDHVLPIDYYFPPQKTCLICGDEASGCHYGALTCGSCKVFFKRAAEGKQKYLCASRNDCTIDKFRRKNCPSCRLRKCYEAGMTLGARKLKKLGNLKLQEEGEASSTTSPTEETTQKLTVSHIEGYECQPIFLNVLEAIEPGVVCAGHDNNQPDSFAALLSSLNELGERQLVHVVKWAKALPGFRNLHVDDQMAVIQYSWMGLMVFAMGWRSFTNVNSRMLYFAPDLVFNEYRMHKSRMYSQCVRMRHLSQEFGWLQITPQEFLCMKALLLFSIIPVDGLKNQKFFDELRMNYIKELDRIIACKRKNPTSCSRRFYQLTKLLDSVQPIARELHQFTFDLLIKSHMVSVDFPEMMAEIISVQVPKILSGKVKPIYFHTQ
Particulars: precursors per se, in the female body; cited from earlier work.

For `C[C@]12CC[C@H](O)CC1=CC[C@@H]1[C@@H]2CC[C@]2(C)C(=O)CC[C@@H]12` [DHEA, dehydroepiandrosterone], in series [1], the “psychometric scores on items in the domain of energy” value is “generally better scores”; the side effects result was “less side effects”; the “vaginal breakthrough spotting and bleeding” value is “less vaginal breakthrough spotting and bleeding”. Moreover, in series [2], the “psychometric scores on items in the domain of energy” value is recorded as “generally better scores”; the side effects result is “less side effects”; the “vaginal breakthrough spotting and bleeding” value is “less vaginal breakthrough spotting and bleeding”. The “state of the endometrium during DHEA treatment” value in series [3] is “remained atrophic”.
Turning to `C#C[C@]1(O)CC[C@H]2[C@@H]3CCC4=CC(=O)CC[C@@H]4[C@H]3CC[C@@]21CC` [levonorgestrel], the McPhail index in series [4] was found to be 2.1±0.4.
Turning to `CCCCCCCCCCC(=O)O[C@H]1CC[C@H]2[C@@H]3CCC4=CC(=O)CC[C@]4(C)[C@H]3CC[C@]12C` [testosterone undecanoate], the “affinity for the androgen receptors” value in series [5] is “virtually no affinity”.
Take `C[C@]12CC[C@H]3[C@@H](CCC4=CC(=O)CC[C@@]43C)[C@@H]1CC[C@@H]2O` [testosterone]: the McPhail index in series [4] worked out at 2.9±0.1.
